Test results reported in US20250002460A1, “SORTILIN INHIBITORS” (SORTINA PHARMA AB, priority 2021, published 2025).
pIC50: −log10 of the molar value.

system: MDA-MB-231 breast cancer cell line; assay: Secondary sphere formation assay in MDA-MB-231; type: cell-based; conditions: MDA-MB-231, without progranulin, 48 hours
Experimental: C-terminal Progranulin (progranulin) (Casio, peptide sequence: […], SEQ ID NO: 5) were reconstituted in sterile PBS upon delivery, aliquoted and stored at −20° C. Working stock concentrations were achieved by dilution in culture media. […] 5% CO2 and 21% O2 before performing the primary followed by secondary sphere formation assay.
The sphere formation assay was performed as described previously (Mammary Gland Biol Neoplasia, 2012, 17(2): 111-117). Briefly, single cell suspensions were obtained following treatment with respective sortilin inhibitors SI1, SI5, SI8, SI25, SI32, SI39, SI51 and SI62 of the invention and seeded in phenol red-free DMEM/F-12 (Gibco®, Life Technologies), supplemented with 1% B27 supplement (Fisher Scientific, Invitrogen), 1% P/S and 20 ng/ml EGF (BD Biosciences) onto non-adherent polyhema-coated plates. After cultivation for five days, single cell suspensions were obtained from the primary spheres and seeded again in phenol red-free DMEM/F-12 supplemented with 1% B27 supplement, 1% P/S and 20 ng/ml EGF onto non-adherent polyhema-coated plates for 5-7 days. Subsequently, spheres greater than 50 μm in diameter were counted manually in the microscope.

Molecule | baseline sphere formation, compound used alone
CC(C)(C)/C=C/C(NC(=O)c1ccc(OCc2ccccc2)nc1)C(=O)O (stereo not drawn) [SI39, (E)-2-[6-(benzyloxy)nicotinoylamino]-5,5-dimethyl-3-hexenoic acid] | reduced baseline sphere formation
CC(C)(C)/C=C/C(NC(=O)c1ccc(-c2cccs2)cc1)C(=O)O (stereo not drawn) [SI51, (E)-5,5-dimethyl-2-[p-(2-thienyl)benzoylamino]-3-hexenoic acid] | reduced baseline sphere formation

target: T1, human sortilin (sSORT) (Homo sapiens, UniProt Q99523); assay: Neurotensin competitive fluorescence polarization binding assay (FPA); conditions: mean IC50 values for sortilin inhibitors, IC50 (nM), 100 nM sSORT, 10 nM Neurotensin-Ahx-FITC, 1 h room temperature
T1 sequence (Q99523 78-756 limits assumed): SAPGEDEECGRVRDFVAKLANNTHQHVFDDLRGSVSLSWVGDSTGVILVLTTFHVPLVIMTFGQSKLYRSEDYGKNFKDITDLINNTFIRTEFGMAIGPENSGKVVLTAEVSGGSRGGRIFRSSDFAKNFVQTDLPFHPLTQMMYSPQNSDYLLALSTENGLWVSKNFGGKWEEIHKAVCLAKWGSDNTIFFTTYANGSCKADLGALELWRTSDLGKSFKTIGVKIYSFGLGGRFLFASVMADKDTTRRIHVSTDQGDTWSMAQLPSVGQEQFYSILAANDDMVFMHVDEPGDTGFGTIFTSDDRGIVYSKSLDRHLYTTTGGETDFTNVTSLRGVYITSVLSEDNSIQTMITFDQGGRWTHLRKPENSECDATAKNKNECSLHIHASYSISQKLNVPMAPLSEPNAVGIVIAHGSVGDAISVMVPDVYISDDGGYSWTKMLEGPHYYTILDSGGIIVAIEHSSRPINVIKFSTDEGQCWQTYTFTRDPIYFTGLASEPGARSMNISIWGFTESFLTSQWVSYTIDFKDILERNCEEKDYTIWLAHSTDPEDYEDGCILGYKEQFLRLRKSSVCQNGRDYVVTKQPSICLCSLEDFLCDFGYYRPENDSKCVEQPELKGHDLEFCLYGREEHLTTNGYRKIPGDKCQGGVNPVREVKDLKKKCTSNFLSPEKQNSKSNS
Experimental: Fresh 0.1% bovine serum albumin (BSA) was added to the assay buffer to obtain the final concentration: 50 mM HEPES, pH 7.4; 100 mM NaCl; 2.0 mM CaCl2; 0.1% BSA; 0.1% TWEEN® 20. The sortilin inhibitors of the invention and reference compounds (see Table 1) analyzed in the screen and neurotensin (used as an assay control) were serially diluted in ten different concentrations in assay buffer. In each well of a Nunc® MaxiSorp™ 384-well plate (Sigma Aldrich), 100 nM sSORT was mixed with pre-diluted sortilin inhibitors and 10 nM Neurotensin-Ahx-FITC in assay buffer adjusted to contain 1% DMSO in a final volume of 20 μl. The plate was then briefly centrifuged prior to 1 h incubation at room temperature in the dark.

IC50 | Molecule
65 nM | CC(C)(C)/C=C/C(NC(=O)c1ccc(OCc2ccccc2)nc1)C(=O)O (stereo not drawn) [SI39, (E)-2-[6-(benzyloxy)nicotinoylamino]-5,5-dimethyl-3-hexenoic acid]
148 nM | CC(C)(C)/C=C/C(NC(=O)c1ccc(Oc2ccc(Cl)cc2)cc1)C(=O)O (stereo not drawn) [SI53, (E)-2-[p-(p-chlorophenoxy)benzoylamino]-5,5-dimethyl-3-hexenoic acid]
234 nM | CC(C)(C)/C=C/C(NC(=O)c1ccc(C(=O)C(F)(F)F)cc1)C(=O)O (stereo not drawn) [SI2, (E)-5,5-dimethyl-2-[p-(2,2,2-trifluoroacetyl)benzoylamino]-3-hexenoic acid]
912 nM | CC(C)(C)/C=C/C(NC(=O)C1CN(c2ccncc2)CCN1)C(=O)O (single isomer, unassigned) [SI4 diastereomer 2, (E)-5,5-dimethyl-2-[4-(4-pyridyl)-2-piperazinylcarbonylamino]-3-hexenoic acid]
28 nM | CC(C)(C)CC[C@H](NC(=O)c1ccc(Oc2ccccc2)nc1)C(=O)O [RC2 (active enantiomer), (S)-5,5-dimethyl-2-(6-phenoxynicotinoylamino)hexanoic acid, reference compound]
102 nM | CC(C)Cc1cc(C(=O)NC(/C=C/C(C)(C)C)C(=O)O)n(C)n1 (stereo not drawn) [SI9, (E)-2-(3-isobutyl-1-methyl-5-pyrazolylcarbonylamino)-5,5-dimethyl-3-hexenoic acid]
316 nM | Cn1nc(-c2cccnc2)cc1C(=O)NC(/C=C/C(C)(C)C)C(=O)O (stereo not drawn) [SI59, (E)-5,5-dimethyl-2-[1-methyl-3-(3-pyridyl)-5-pyrazolylcarbonylamino]-3-hexenoic acid]
1000 nM | Cc1cc(C(=O)NC(/C=C/C(C)(C)C)C(=O)O)nc(N(C)C)n1 (stereo not drawn) [SI20, (E)-2-[2-(dimethylamino)-6-methyl-4-pyrimidinylcarbonylamino]-5,5-dimethyl-3-hexenoic acid]
123 nM | Cc1nc(N(C)C)ncc1C(=O)NC(CCC(C)(C)C)C(=O)O (stereo not drawn) [RC1, 2-[2-(dimethylamino)-4-methyl-5-pyrimidinylcarbonylamino]-5,5-dimethylhexanoic acid, reference compound]
80 nM | CC(C)(C)/C=C/C(NC(=O)c1ccc(Cl)[nH]1)C(=O)O (stereo not drawn) [SI29, (E)-2-(5-chloro-2-pyrrolylcarbonylamino)-5,5-dimethyl-3-hexenoic acid]
158 nM | CC(C)(C)/C=C/C(NC(=O)c1ccc(Oc2cccc(Cl)c2)cc1)C(=O)O (stereo not drawn) [SI54, (E)-2-[p-(m-chlorophenoxy)benzoylamino]-5,5-dimethyl-3-hexenoic acid]
95 nM | CCn1nc(CC(C)C)cc1C(=O)NC(/C=C/C(C)(C)C)C(=O)O (stereo not drawn) [SI56, (E)-2-(1-ethyl-3-isobutyl-5-pyrazolylcarbonylamino)-5,5-dimethyl-3-hexenoic acid]
55 nM | CC(C)(C)/C=C/C(NC(=O)c1cc(Br)c[nH]1)C(=O)O (stereo not drawn) [SI28, (E)-2-(4-bromo-2-pyrrolylcarbonylamino)-5,5-dimethyl-3-hexenoic acid]
45 nM | Cn1nc(Cl)cc1C(=O)NC(/C=C/C(C)(C)C)C(=O)O (stereo not drawn) [SI57, (E)-2-(3-chloro-1-methyl-5-pyrazolylcarbonylamino)-5,5-dimethyl-3-hexenoic acid]
80 nM | CC(C)(C)/C=C/C(NC(=O)c1ccc(-c2cccs2)cc1)C(=O)O (stereo not drawn) [SI51, (E)-5,5-dimethyl-2-[p-(2-thienyl)benzoylamino]-3-hexenoic acid]
31 nM | CC(C)(C)/C=C/C(NC(=O)c1cccc(-c2cccs2)c1)C(=O)O (stereo not drawn) [SI52, (E)-5,5-dimethyl-2-[m-(2-thienyl)benzoylamino]-3-hexenoic acid]
56 nM | CC(C)(C)/C=C/C(NC(=O)c1ccc(Oc2cccnc2)cc1)C(=O)O (stereo not drawn) [SI34, (E)-5,5-dimethyl-2-[p-(3-pyridyloxy)benzoylamino]-3-hexenoic acid]

IC50 | Molecule
149 nM | CN(C)c1ncc(C(=O)NC(/C=C/C(C)(C)C)C(=O)O)cn1 (stereo not drawn) [SI17, (E)-2-[2-(dimethylamino)-5-pyrimidinylcarbonylamino]-5,5-dimethyl-3-hexenoic acid]
116 nM | CC(C)(C)/C=C/C(NC(=O)c1ccc(COc2ccccc2)cc1)C(=O)O (stereo not drawn) [SI55, (E)-5,5-dimethyl-2-[p-(phenoxymethyl)benzoylamino]-3-hexenoic acid]
229 nM | CC(C)(C)/C=C/C(NC(=O)C1CN(c2ccncc2)CCN1)C(=O)O (single isomer, unassigned) [SI4 diastereomer 1, (E)-5,5-dimethyl-2-[4-(4-pyridyl)-2-piperazinylcarbonylamino]-3-hexenoic acid]
668 nM | CC(C)(C)/C=C/C(NC(=O)c1cccc(-n2cnnc2)n1)C(=O)O (stereo not drawn) [SI50, (E)-5,5-dimethyl-2-[6-(4H-1,2,4-triazol-4-yl)-2-pyridylcarbonylamino]-3-hexenoic acid]
9 nM | Cc1nc(N(C)C)ncc1C(=O)NC(/C=C/C(C)(C)C)C(=O)O (single isomer, unassigned) [SI1 (active enantiomer), (E)-2-[2-(dimethylamino)-4-methyl-5-pyrimidinylcarbonylamino]-5,5-dimethyl-3-hexenoic acid]
158 nM | CC(C)(C)/C=C/C(NC(=O)c1ccc(-n2cnnc2)cc1)C(=O)O (stereo not drawn) [SI23, (E)-5,5-dimethyl-2-[p-(4H-1,2,4-triazol-4-yl)benzoylamino]-3-hexenoic acid]
117 nM | Cn1nc(C(=O)NC(/C=C/C(C)(C)C)C(=O)O)cc1-c1ccc(Cl)c(Cl)c1 (stereo not drawn) [SI61, (E)-2-[5-(3,4-dichlorophenyl)-1-methyl-3-pyrazolylcarbonylamino]-5,5-dimethyl-3-hexenoic acid]
62 nM | CC(C)(C)/C=C/C(NC(=O)c1cccc(-n2cnnc2)c1)C(=O)O (stereo not drawn) [SI6, (E)-5,5-dimethyl-2-[m-(4H-1,2,4-triazol-4-yl)benzoylamino]-3-hexenoic acid]
52 nM | CC(C)(C)/C=C/C(NC(=O)c1cccc(-n2cncn2)c1)C(=O)O (stereo not drawn) [SI24, (E)-5,5-dimethyl-2-[m-(1H-1,2,4-triazol-1-yl)benzoylamino]-3-hexenoic acid]
851 nM | CN(C)c1nccc(C(=O)NC(/C=C/C(C)(C)C)C(=O)O)n1 (stereo not drawn) [SI19, (E)-2-[2-(dimethylamino)-4-pyrimidinylcarbonylamino]-5,5-dimethyl-3-hexenoic acid]
158 nM | CC(C)(C)/C=C/C(NC(=O)c1cnc(Oc2ccccc2)nc1)C(=O)O (stereo not drawn) [SI44, (E)-5,5-dimethyl-2-(2-phenoxy-5-pyrimidinylcarbonylamino)-3-hexenoic acid]
71 nM | Cn1cc(Cl)cc1C(=O)NC(/C=C/C(C)(C)C)C(=O)O (stereo not drawn) [SI31, (E)-2-(4-chloro-1-methyl-2-pyrrolylcarbonylamino)-5,5-dimethyl-3-hexenoic acid]
339 nM | CC(C)(C)/C=C/C(NC(=O)C1CN(c2ccccn2)CCN1)C(=O)O (single isomer, unassigned) [SI3 diastereomer 2, (E)-5,5-dimethyl-2-[4-(2-pyridyl)-2-piperazinylcarbonylamino]-3-hexenoic acid]
135 nM | CC(C)(C)/C=C/C(NC(=O)C1CN(c2ccccn2)CCN1)C(=O)O (single isomer, unassigned) [SI3 diastereomer 1, (E)-5,5-dimethyl-2-[4-(2-pyridyl)-2-piperazinylcarbonylamino]-3-hexenoic acid]
5 nM | CC(C)(C)/C=C/C(NC(=O)c1ccc(Oc2ccccc2)nc1)C(=O)O (single isomer, unassigned) [SI (active enantiomer), (E)-5,5-dimethyl-2-(6-phenoxynicotinoylamino)-3-hexenoic acid]
89 nM | Cc1cc2[nH]c(C(=O)NC(/C=C/C(C)(C)C)C(=O)O)cc2cn1 (stereo not drawn) [SI7, (E)-5,5-dimethyl-2-(6-methyl-1H-1,5-diazainden-2-ylcarbonylamino)-3-hexenoic acid]

same assay, conditions: read-out: mean IC50 values for sortilin inhibitors, IC50; 100 nM sSORT, 10 nM Neurotensin-Ahx-FITC, 1 h room temperature

pIC50 | Molecule
7.17 | (E)-2-(2-isopropyl-4-methyl-5-pyrimidinylcarbonylamino)-5,5-dimethyl-3-hexenoic acid [SI49]
